This is an account of results in ChEMBL document CHEMBL5724914, “Linking interpersonal differences in gut microbiota composition and drug biotransformation activity” (2024).

Data set [1] in a line: The drug is tested on Z-027 corresponding to metagenome with ENA study accession number: PRJEB37062 and ENA sample accession number: ERS12561826 for biotransformation under anaerobic condition. The drug concentrations were measured over 9 timepoints collected between 0 and 24 hours of incubation by liquid-chromatography-coupled mass spectrometry (LC–MS). The following applies: 2 µM.

Data set [2] in a line: The drug is tested on Z-023 corresponding to metagenome with ENA study accession number: PRJEB37062 and ENA sample accession number: ERS12561822 for biotransformation under anaerobic condition. The drug concentrations were measured over 9 timepoints collected between 0 and 24 hours of incubation by liquid-chromatography-coupled mass spectrometry (LC–MS). The note with it: 2 µM.

Data set [3] can be described thus: The drug is tested on Z-020 corresponding to rabbit gut metagenome with ENA study accession number: PRJEB37062 and ENA sample accession number: ERS12561819 for biotransformation under anaerobic condition. The drug concentrations were measured over 9 timepoints collected between 0 and 24 hours of incubation by liquid-chromatography-coupled mass spectrometry (LC–MS). The note with it: 2 µM.

Data set [4] can be described thus: The drug is tested on Z-012 corresponding to metagenome with ENA study accession number: PRJEB37062 and ENA sample accession number: ERS12561812 for biotransformation under anaerobic condition. The drug concentrations were measured over 9 timepoints collected between 0 and 24 hours of incubation by liquid-chromatography-coupled mass spectrometry (LC–MS). The note with it: 2 µM.

Data set [5] in a line: The drug is tested on Z-011 corresponding to mouse gut metagenome with ENA study accession number: PRJEB37062 and ENA sample accession number: ERS12561811 for biotransformation under anaerobic condition. The drug concentrations were measured over 9 timepoints collected between 0 and 24 hours of incubation by liquid-chromatography-coupled mass spectrometry (LC–MS). The note with it: 2 µM.

A short description of data set [6]: The drug is tested on Z-001 corresponding to mouse gut metagenome with ENA study accession number: PRJEB37062 and ENA sample accession number: ERS12561801 for biotransformation under anaerobic condition. The drug concentrations were measured over 9 timepoints collected between 0 and 24 hours of incubation by liquid-chromatography-coupled mass spectrometry (LC–MS). The following applies: 2 µM.

The nature of data set [7]: The drug is tested on WLS-098 corresponding to human gut metagenome with ENA study accession number: PRJEB37062 and ENA sample accession number: ERS12561754 for biotransformation under anaerobic condition. The drug concentrations were measured over 9 timepoints collected between 0 and 24 hours of incubation by liquid-chromatography-coupled mass spectrometry (LC–MS). The note with it: 2 µM.

Data set [8] is described as follows: The drug is tested on WLS-090 corresponding to human gut metagenome with ENA study accession number: PRJEB37062 and ENA sample accession number: ERS12561753 for biotransformation under anaerobic condition. The drug concentrations were measured over 9 timepoints collected between 0 and 24 hours of incubation by liquid-chromatography-coupled mass spectrometry (LC–MS). The following applies: 2 µM.

Data set [9] is described as follows: The drug is tested on WLS-073 corresponding to human gut metagenome with ENA study accession number: PRJEB37062 and ENA sample accession number: ERS12561749 for biotransformation under anaerobic condition. The drug concentrations were measured over 9 timepoints collected between 0 and 24 hours of incubation by liquid-chromatography-coupled mass spectrometry (LC–MS). The following applies: 2 µM.

Data set [10] in a line: The drug is tested on WLS-052 corresponding to human gut metagenome with ENA study accession number: PRJEB37062 and ENA sample accession number: ERS12561747 for biotransformation under anaerobic condition. The drug concentrations were measured over 9 timepoints collected between 0 and 24 hours of incubation by liquid-chromatography-coupled mass spectrometry (LC–MS). The following applies: 2 µM.

The nature of data set [11]: The drug is tested on WLS-027 corresponding to human gut metagenome with ENA study accession number: PRJEB37062 and ENA sample accession number: ERS12561744 for biotransformation under anaerobic condition. The drug concentrations were measured over 9 timepoints collected between 0 and 24 hours of incubation by liquid-chromatography-coupled mass spectrometry (LC–MS). The note with it: 2 µM.

Data set [12] in a line: The drug is tested on WLS-007 corresponding to human gut metagenome with ENA study accession number: PRJEB37062 and ENA sample accession number: ERS12561742 for biotransformation under anaerobic condition. The drug concentrations were measured over 9 timepoints collected between 0 and 24 hours of incubation by liquid-chromatography-coupled mass spectrometry (LC–MS). The following applies: 2 µM.

For data set [13] the following is noted: human gut metagenome, 24 h, 2 µM.
For data set [14] the following is noted: human gut metagenome, 24 h, 2 µM. The source holds these as a separate data set.
The conditions of data set [15]: human gut metagenome, 24 h, 2 µM. The source holds these as a separate data set.
For data set [16] the following is noted: human gut metagenome, 24 h, 2 µM. The source holds these as a separate data set.
For data set [17] the following is noted: human gut metagenome, 24 h, 2 µM. The source holds these as a separate data set.
For data set [18] the following is noted: human gut metagenome, 24 h, 2 µM. This is another data set of the same source.
For data set [19] the following is noted: human gut metagenome, 24 h, 2 µM. The source holds these as a separate data set.
The conditions of data set [20]: human gut metagenome, 24 h, 2 µM. The source holds these as a separate data set.
Also: call rule not given here.

As for `CN1C(=O)CC(C)(c2ccccc2)C1=O` (stereo not given) [METHSUXIMIDE], the “Bacterial Biotransformation” value in data set [1], in data set [2], in data set [3], in data set [4], in data set [5] and in data set [6] was “Compound NOT metabolized” throughout. Besides, the “Bacterial Biotransformation” value in data set [7], in data set [8], in [9], in [10], in data set [11] and in data set [12] was “Compound NOT metabolized” throughout. The “Bacterial Biotransformation” value in [13], in data set [14], in [15], in data set [16], in data set [17] and in data set [18] was “Compound NOT metabolized” each time. The entries for the “Bacterial Biotransformation” value in data set [19] and in data set [20] were “Compound metabolized” and “Compound NOT metabolized”, respectively.

Regarding `CNC(=C[N+](=O)[O-])NCCSCc1csc(CN(C)C)n1` [NIZATIDINE], the “Bacterial Biotransformation” value was “Compound NOT metabolized” in data set [1]; “Compound NOT metabolized” in data set [2]; “Compound NOT metabolized” in data set [3]; “Compound NOT metabolized” in [4]; “Compound metabolized” in data set [5]; “Compound NOT metabolized” in data set [6]. Besides, the “Bacterial Biotransformation” value is given as “Compound metabolized” in [7]; “Compound NOT metabolized” in data set [8]; “Compound metabolized” in data set [9]; “Compound NOT metabolized” in [10]; “Compound NOT metabolized” in data set [11]; “Compound NOT metabolized” in [12]. Further, the “Bacterial Biotransformation” value is given as “Compound metabolized” in [13]; “Compound NOT metabolized” in [14]; “Compound metabolized” in data set [15]; “Compound metabolized” in [16]; “Compound NOT metabolized” in data set [17]; “Compound metabolized” in [18]. Also, the “Bacterial Biotransformation” value in data set [19] is recorded as “Compound metabolized”; in data set [20] it was “Compound NOT metabolized”.

Take `COc1ccc2[nH]c([S+]([O-])Cc3ncc(C)c(OC)c3C)nc2c1` (stereo not given) [OMEPRAZOLE]: the “Bacterial Biotransformation” value in data set [1] is “Compound metabolized”; in [2], “Compound NOT metabolized”; in data set [3] it was “Compound NOT metabolized”; in data set [4], “Compound NOT metabolized”; in data set [5] it was “Compound NOT metabolized”; in [6], “Compound NOT metabolized”. The “Bacterial Biotransformation” value in data set [7], in data set [8], in data set [9], in [10], in data set [11] and in data set [12] was “Compound metabolized” each time. The “Bacterial Biotransformation” value in data set [13], in data set [14], in data set [15], in [16], in data set [17] and in [18] was “Compound metabolized” throughout. Further, the “Bacterial Biotransformation” value in data set [19] and in data set [20] was “Compound metabolized” throughout.

As for `O=C(O)CCc1nc(-c2ccccc2)c(-c2ccccc2)o1` [OXAPROZIN], the “Bacterial Biotransformation” value is on record as “Compound metabolized” in data set [1]; “Compound metabolized” in data set [2]; “Compound metabolized” in data set [3]; “Compound NOT metabolized” in data set [4]; “Compound NOT metabolized” in [5]; “Compound NOT metabolized” in data set [6]. Also, the “Bacterial Biotransformation” value in data set [7], in data set [8], in data set [9], in data set [10], in data set [11] and in data set [12] was “Compound metabolized” throughout. Further, the “Bacterial Biotransformation” value in data set [13], in [14], in [15], in [16], in [17] and in data set [18] was “Compound metabolized” in each case. For the same compound, the “Bacterial Biotransformation” value in [19] and in data set [20] was “Compound metabolized” in each case.

In the case of `CC(C)(C)NC[C@H](O)COc1ccccc1C1CCCC1.CC(C)(C)NC[C@H](O)COc1ccccc1C1CCCC1.O=S(=O)(O)O` [PENBUTOLOL SULFATE], the “Bacterial Biotransformation” value is “Compound NOT metabolized” in data set [1]; “Compound metabolized” in [2]; “Compound metabolized” in [3]; “Compound NOT metabolized” in [4]; “Compound NOT metabolized” in [5]; “Compound metabolized” in data set [6]. Further, the “Bacterial Biotransformation” value in [7], in data set [8], in data set [9], in data set [10], in [11] and in [12] was “Compound metabolized” each time. The “Bacterial Biotransformation” value in [13], in [14], in data set [15], in data set [16], in data set [17] and in [18] was “Compound metabolized” each time. The “Bacterial Biotransformation” value was “Compound metabolized” in [19] and “Compound NOT metabolized” in [20].
